Experimental data reported in patent US20260262643A1, “HERBICIDAL BENZOXAZINES” (FMC CORPORATION, priority 2022, published 2026).

Assays:
blackgrass [1] = test: Test A postemergence; format: in vivo, Alopecurus myosuroides; conditions: 1000 g ai/ha, Postemergence; 0 to 100 scale
Description: (§1) Seeds of plant species selected from barnyardgrass (Echinochloa crusgalli), blackgrass (Alopecurus myosuroides), corn (Zea mays), foxtail, giant (giant foxtail, Setaria faberi), goosegrass (Eleusine indica), kochia (Bassia scoparia), oat, wild (wild oat, Avena fatua), pigweed, palmer (palmer amaranth, palmer pigweed, Amaranthus palmeri), Pigweed, Redroot (redroot pigweed, Amaranthus retroflexus), ragweed (common ragweed, Ambrosia artemisiifolia), ryegrass, Italian (italian ryegrass, Lolium multiflorum), soybean (Glycine max), and wheat (Triticum aestivum) were planted into a blend of loam soil and sand and treated preemergence with a directed soil spray using test chemicals formulated in a non-phytotoxic solvent mixture which included a surfactant. At the same time, plants selected from these crops and weed species and also galium (catchweed bedstraw, Galium aparine) and horseweed (Erigeron canadensis) were planted in pots containing the same blend of loam soil and sand and treated with postemergence applications of test chemicals formulated in the same manner. Plants ranged in height from 2 to 10 cm and were in the one- to two-leaf stage for the postemergence treatment. Treated plants and untreated controls were maintained in a greenhouse for 10 days, after which time all treated plants were compared to untreated controls and visually evaluated for injury. Plant response ratings, summarized in Table A, are based on a 0 to 100 scale where 0 is no effect and 100 is complete control. A dash (-) response means no test result.

goosegrass [2] = test: Test A postemergence; format: in vivo, Eleusine indica; conditions: 1000 g ai/ha, Postemergence; 0 to 100 scale
Description: as §1

ducksalad = test: Test B flooded paddy test; format: in vivo, Heteranthera limosa; conditions: 250 g ai/ha, Flood, 13 days, 0 to 100 scale (0 no effect, 100 complete control)
Description: (§2) Plant species in the flooded paddy test selected from barnyardgrass (Echinochloa crus-galli), ducksalad (Heteranthera limosa), rice (Oryza sativa), and sedge, umbrella (small-flower umbrella sedge, Cyperus difformis) were grown to the 2-leaf stage for testing. At time of treatment, test pots were flooded to 3 cm above the soil surface, treated by application of test compounds directly to the paddy water, and then maintained at that water depth for the duration of the test. Treated plants and controls were maintained in a greenhouse for 13 days, after which time all species were compared to controls and visually evaluated. Plant response ratings, summarized in Table B, are based on a scale of 0 to 100 where 0 is no effect and 100 is complete control. A dash (-) response means no test result.

foxtail, giant [3] = test: Test A preemergence; format: in vivo, Setaria faberi; conditions: 1000 g ai/ha, 0 to 100 scale (0 no effect, 100 complete control), 10 days
Description: as §1

pigweed, palmer [4] = test: Test A preemergence; format: in vivo, Amaranthus palmeri; conditions: 1000 g ai/ha, 0 to 100 scale (0 no effect, 100 complete control), 10 days
Description: as §1

goosegrass [5] = test: Test A preemergence; format: in vivo, Eleusine indica; conditions: 1000 g ai/ha, 0 to 100 scale (0 no effect, 100 complete control), 10 days
Description: as §1

horseweed = test: Test A postemergence; format: in vivo, Erigeron canadensis; conditions: 1000 g ai/ha, Postemergence; 0 to 100 scale
Description: as §1

rice = test: Test B flooded paddy test; format: in vivo, Oryza sativa; conditions: 250 g ai/ha, Flood, 13 days, 0 to 100 scale (0 no effect, 100 complete control)
Description: as §2

galium = test: Test A postemergence; format: in vivo, Galium aparine; conditions: 1000 g ai/ha, Postemergence; 0 to 100 scale
Description: as §1

foxtail, giant [6] = test: Test A postemergence; format: in vivo, Setaria faberi; conditions: 1000 g ai/ha, Postemergence; 0 to 100 scale
Description: as §1

ryegrass, Italian [7] = test: Test A postemergence; format: in vivo, Lolium multiflorum; conditions: 1000 g ai/ha, Postemergence; 0 to 100 scale
Description: as §1

blackgrass [8] = test: Test A preemergence; format: in vivo, Alopecurus myosuroides; conditions: 1000 g ai/ha, 0 to 100 scale (0 no effect, 100 complete control), 10 days
Description: as §1

kochia [9] = test: Test A preemergence; format: in vivo, Bassia scoparia; conditions: 1000 g ai/ha, 0 to 100 scale (0 no effect, 100 complete control), 10 days
Description: as §1

ragweed [10] = test: Test A postemergence; format: in vivo, Ambrosia artemisiifolia; conditions: 1000 g ai/ha, Postemergence; 0 to 100 scale
Description: as §1

ragweed [11] = test: Test A preemergence; format: in vivo, Ambrosia artemisiifolia; conditions: 1000 g ai/ha, 0 to 100 scale (0 no effect, 100 complete control), 10 days
Description: as §1

pigweed, palmer [12] = test: Test A postemergence; format: in vivo, Amaranthus palmeri; conditions: 1000 g ai/ha, Postemergence; 0 to 100 scale
Description: as §1

kochia [13] = test: Test A postemergence; format: in vivo, Bassia scoparia; conditions: 1000 g ai/ha, Postemergence; 0 to 100 scale
Description: as §1

sedge, umbrella = test: Test B flooded paddy test; format: in vivo, Cyperus difformis; conditions: 250 g ai/ha, Flood, 13 days, 0 to 100 scale (0 no effect, 100 complete control)
Description: as §2

ryegrass, Italian [14] = test: Test A preemergence; format: in vivo, Lolium multiflorum; conditions: 1000 g ai/ha, 0 to 100 scale (0 no effect, 100 complete control), 10 days
Description: as §1

barnyardgrass = test: Test B flooded paddy test; format: in vivo, Echinochloa crus-galli; conditions: 250 g ai/ha, Flood, 13 days, 0 to 100 scale (0 no effect, 100 complete control)
Description: as §2

| SMILES | Plant response rating, Blackgrass (blackgrass [1]) | Plant response rating, Goosegrass (goosegrass [2]) | Plant response rating, Ducksalad (ducksalad) | Plant response rating, Foxtail, Giant (foxtail, giant [3]) | Plant response rating, Pigweed, Palmer (pigweed, palmer [4]) | Plant response rating, Goosegrass (goosegrass [5]) | Plant response rating, Horseweed (horseweed) | Plant response rating, Rice (rice) | Plant response rating, Galium (galium) | Plant response rating, Foxtail, Giant (foxtail, giant [6]) | Plant response rating, Ryegrass, Italian (ryegrass, Italian [7]) | Plant response rating, Blackgrass (blackgrass [8]) | Plant response rating, Kochia (kochia [9]) | Plant response rating, Ragweed (ragweed [10]) | Plant response rating, Ragweed (ragweed [11]) | Plant response rating, Pigweed, Palmer (pigweed, palmer [12]) | Plant response rating, Kochia (kochia [13]) | Plant response rating, Sedge, Umbrella (sedge, umbrella) | Plant response rating, Ryegrass, Italian (ryegrass, Italian [14]) | Plant response rating, Barnyardgrass (barnyardgrass) |
| --- | --- | --- | --- | --- | --- | --- | --- | --- | --- | --- | --- | --- | --- | --- | --- | --- | --- | --- | --- | --- |
| Cc1cc(C(=O)N2CC(C)Oc3c(Cl)cccc32)cc(-n2cncn2)c1 (centres unmarked) [Compound 32] | 80 | 80 | 0 | 100 | 90 | 100 | 0 | 0 | 100 | 100 | 90 | 80 | 30 | 20 | 0 | 70 | 60 | 0 | 100 | 0 |
| Cc1csc(-c2cccc(C(=O)N3C[C@H](C)Oc4c(Cl)cccc43)c2)n1 [Compound 124] | 0 | 0 |  | 80 | 30 | 60 | 0 |  | 30 | 40 | 0 | 0 | 0 | 0 | 0 | 60 | 30 |  | 60 |  |
| O=C(c1ccnc(-n2cncn2)c1)N1CC(CF)Oc2c(Cl)cccc21 (centres unmarked) [Compound 36] | 60 | 30 |  | 100 | 40 | 90 | 0 |  | 90 | 90 | 40 | 70 | 20 | 60 | 30 | 60 | 60 |  | 50 |  |
| Cc1noc(-c2cccc(C(=O)N3C[C@H](C)Oc4c(Cl)cccc43)c2)n1 [Compound 121] | 0 | 0 |  | 60 | 60 | 0 | 0 |  | 80 | 20 | 0 | 0 | 0 | 0 | 0 | 50 | 70 |  | 0 |  |
